The term IC50 denotes the midpoint of a concentration-inhibition curve.

Some results are limits rather than exact numbers.

For the test, the target named is HPK1 (MAP4K1) (Homo sapiens, UniProt Q92918). Nature of the test: HPK1 (MAP4K1) kinase Lantha screen assay. The test is classed as biochemical. How it is done: The effect of the compounds on the activity of HPK1 (MAP4K1) kinase were assessed by Lantha screen assay. • 1. 1×kinase buffer was prepared (50 mM HEPES, pH 7.5, 10 mM MgCl2, 4 mM DT • 2. Compound and assay plates preparation: • 2-1) The compound was diluted to 100× of the final desired highest inhibitor concentration in reaction by 100% DMSO. For example, if a compound was tested at […], then a solution at 500 µM in DMSO was prepared in this step. • 2-2) For each tested compound, the compound was transferred in tubes to one well on a 96-well storage plate and serially diluted by transferring […] of 100% DMSO in the next well and so forth for a total of 6 concentrations. • 2-3) 100 μl of 100% DMSO were added to two empty wells to serve as no compound control and no enzyme control in the same 96-well plate. The resulting plate was labeled as the source plate. • 2-4) 40 μl of compound from source plate were transferred to a new 384-well Echo plate as the intermediate plate. 100 nl of each well from the 384-well Echo plate were transferred to a 384-well assay plate in duplicates. For example, A1 of the 384-well Echo plate was transferred to A1 and A2 of the 384-well plate. A2 of the 384-well Echo plate was transferred to A3 and A4 of the 384-well plate, and so on; • 3. Kinase reaction: a solution of MAP4K1 in 1× kinase buffer at 2-fold the final concentration of each reagent in the assay was prepared. 5 μl of kinase solution was added to each well of the assay plate, except for control wells without enzyme (add 5 μl of 1× kinase buffer instead). The plate was then shaken, then incubated at room temperature for 10 min. A substrate solution of Fluorescein-PKC and ATP in 1× kinase reaction buffer at 2-fold of the final concentration of each reagent desired in the assay was prepared. 5 μl of substrate solution was added to each well of the assay plate to start reaction. The plate was shaken, then covered, and incubated at room temperature for 90 minutes.
Chain of HPK1 (MAP4K1) (Q92918 whole entry, species assumed): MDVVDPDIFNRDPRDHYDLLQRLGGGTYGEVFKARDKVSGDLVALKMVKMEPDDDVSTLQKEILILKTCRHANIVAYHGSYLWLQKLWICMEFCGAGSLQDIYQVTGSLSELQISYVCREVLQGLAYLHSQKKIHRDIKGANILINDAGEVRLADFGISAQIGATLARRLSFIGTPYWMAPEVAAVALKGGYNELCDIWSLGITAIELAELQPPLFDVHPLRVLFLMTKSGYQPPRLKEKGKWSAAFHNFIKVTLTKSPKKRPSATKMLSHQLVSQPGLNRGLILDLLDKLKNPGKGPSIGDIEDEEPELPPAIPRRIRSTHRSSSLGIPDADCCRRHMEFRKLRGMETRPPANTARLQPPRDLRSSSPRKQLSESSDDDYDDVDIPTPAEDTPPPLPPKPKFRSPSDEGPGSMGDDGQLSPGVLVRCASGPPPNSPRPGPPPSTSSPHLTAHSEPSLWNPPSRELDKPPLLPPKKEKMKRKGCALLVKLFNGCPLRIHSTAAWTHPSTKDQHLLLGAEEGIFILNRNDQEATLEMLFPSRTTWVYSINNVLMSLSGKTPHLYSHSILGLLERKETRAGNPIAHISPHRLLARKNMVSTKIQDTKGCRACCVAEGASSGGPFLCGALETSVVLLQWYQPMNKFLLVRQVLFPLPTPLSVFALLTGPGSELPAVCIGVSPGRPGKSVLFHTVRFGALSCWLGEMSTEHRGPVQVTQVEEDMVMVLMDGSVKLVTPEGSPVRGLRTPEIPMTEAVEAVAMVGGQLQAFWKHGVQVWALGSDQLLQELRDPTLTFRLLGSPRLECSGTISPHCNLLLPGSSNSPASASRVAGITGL
Kinase detection: detection solution of 2-fold of final concentration in Antibody Dilution Buffer was prepared. 10 μl of detection solution was added to each well of the assay plate to stop the reaction. The mixtures were mixed briefly with Centrifuge and incubated at room temperature 60 minutes before reading on a plate reader for fluorescence. Data was collected on Envision with excitation at 340 nm and emission at 520 nm and 495 nm.
In turn, `Clc1ccccc1C1=Cc2cnc(Nc3ccc(N4CCOCC4)nc3)nc2N2CCN=C12` [Compound 100, 6-(2-chlorophenyl)-N-(6-morpholinopyridin-3-yl)-8,9-dihydroimidazo[1′,2′:1,6]pyrido[2,3-d]pyrimidin-2-amine] showed an IC50 of 100 to 10000 nM.

In turn, `Cc1ccc(Nc2ncc3c(n2)N2CCN=C2C(c2ccccc2Cl)=C3)cn1` [Compound 101, 6-(2-chlorophenyl)-N-(6-methylpyridin-3-yl)-8,9-dihydroimidazo[1′,2′:1,6]pyrido[2,3-d]pyrimidin-2-amine] displayed an IC50 of 100 to 10000 nM.

Consider `CNc1ncc2c(n1)N1CCCN=C1C(c1cc(NC(=O)c3cc(C(F)(F)F)ccn3)ccc1C)=C2` [Compound 105, N-(4-methyl-3-(2-(methylamino)-9,10-dihydro-8H-pyrido[1,6-a:2,3-d′]dipyrimidin-6-yl)phenyl)-4-(trifluoromethyl)picolinamide], for which the IC50 lay within 100 to 10000 nM.

The compound `COCCNc1ncc2c(n1)N1CCN=C1C(c1cc(NC(=O)c3cc(C(F)(F)F)ccn3)ccc1C)=C2` [Compound 112, N-(3-(2-((2-methoxyethyl)amino)-8,9-dihydroimidazo[1′,2′:1,6]pyrido[2,3-d]pyrimidin-6-yl)-4-methylphenyl)-4-(trifluoromethyl)picolinamide] came in with an IC50 of 100 to 10000 nM.

`Cc1ccc(NC(=O)c2cc(C(F)(F)F)ccn2)cc1C1=Cc2cnc(NCC(C)(C)O)nc2N2CCN=C12` [Compound 113, N-(3-(2-((2-hydroxy-2-methylpropyl)amino)-8,9-dihydroimidazo[1′,2′:1,6]pyrido[2,3-d]pyrimidin-6-yl)-4-methylphenyl)-4-(trifluoromethyl)picolinamide] yielded an IC50 of less than 100 nM.

As for `Cc1ccc(NC(=O)c2cc(C(F)(F)F)ccn2)cc1C1=Cc2cnc(NC3COC3)nc2N2CCN=C12` [Compound 114, N-(4-methyl-3-(2-(oxetan-3-ylamino)-8,9-dihydroimidazo[1′,2′:1,6]pyrido[2,3-d]pyrimidin-6-yl)phenyl)-4-(trifluoromethyl)picolinamide], the IC50 was less than 100 nM.

As for `Cc1ccc(NC(=O)c2cc(C(F)(F)F)ccn2)cc1C1=Cc2cnc(NC3CNC3)nc2N2CCN=C12` [Compound 116, N-(3-(2-(azetidin-3-ylamino)-8,9-dihydroimidazo[1′,2′:1,6]pyrido[2,3-d]pyrimidin-6-yl)-4-methylphenyl)-4-(trifluoromethyl)picolinamide], the IC50 fell in the range of 100 to 10000 nM.

For the compound `Cc1ccc(NC(=O)c2cc(C(F)(F)F)ccn2)cc1C1=Cc2cnc(NS(C)(=O)=O)nc2N2CCN=C12` [Compound 117, N-(4-methyl-3-(2-(methylsulfonamido)-8,9-dihydroimidazo[1′,2′:1,6]pyrido[2,3-d]pyrimidin-6-yl)phenyl)-4-(trifluoromethyl)picolinamide], the IC50 was more than 10000 nM.

With `CC(=O)Nc1ncc2c(n1)N1CCN=C1C(c1cc(NC(=O)c3cc(C(F)(F)F)ccn3)ccc1C)=C2` [Compound 118, N-(3-(2-acetamido-8,9-dihydroimidazo[1′,2′:1,6]pyrido[2,3-d]pyrimidin-6-yl)-4-methylphenyl)-4-(trifluoromethyl)picolinamide], the IC50 is 100 to 10000 nM.

Take `CNc1nc(C)c2c(n1)N1CCN=C1C(c1cc(NC(=O)c3cc(C(F)(F)F)ccn3)ccc1Cl)=C2` [Compound 123, N-(4-chloro-3-(4-methyl-2-(methylamino)-8,9-dihydroimidazo[1′,2′:1,6]pyrido[2,3-d]pyrimidin-6-yl)phenyl)-4-(trifluoromethyl)picolinamide]: the IC50 was more than 10000 nM.

Turning to `CNc1ncc2c(n1)N1CCN=C1C(c1cc(NC(=O)c3cc(C(F)(F)F)ccn3)ccc1C)=N2` [Compound 124, N-(4-methyl-3-(2-(methylamino)-8,9-dihydroimidazo[2,1-h]pteridin-6-yl)phenyl)-4-(trifluoromethyl)picolinamide], the IC50 is 100 to 10000 nM.

Compound `CNc1ncc2c(n1)N1C[C@H](C)N=C1C(c1cc(NC(=O)c3cc(C(F)(F)F)ccn3)ccc1C)=C2` [Compound 126, (S)—N-(4-methyl-3-(8-methyl-2-(methylamino)-8,9-dihydroimidazo[1′,2′:1,6]pyrido[2,3-d]pyrimidin-6-yl)phenyl)-4-(trifluoromethyl)picolinamide] gave an IC50 of 100 to 10000 nM.

`CNc1ncc2c(n1)N1C[C@@H](C)N=C1C(c1cc(NC(=O)c3cc(C(F)(F)F)ccn3)ccc1C)=C2` [Compound 127, (R)—N-(4-methyl-3-(8-methyl-2-(methylamino)-8,9-dihydroimidazo[1′,2′:1,6]pyrido[2,3-d]pyrimidin-6-yl)phenyl)-4-(trifluoromethyl)picolinamide]: the IC50 fell in the range of 100 to 10000 nM.

Turning to `CNc1ncc2c(n1)N1C(=NCC13CCCC3)C(c1cc(NC(=O)c3cc(C(F)(F)F)ccn3)ccc1C)=C2` [Compound 131, N-(4-methyl-3-(2′-(methylamino)-8′H-spiro[cyclopentane-1,9′-imidazo[1′,2′:1,6]pyrido[2,3-d]pyrimidin]-6′-yl)phenyl)-4-(trifluoromethyl)picolinamide], the IC50 is less than 100 nM.

Consider `CNc1cc2c(cn1)C=C(c1cc(NC(=O)c3cc(C(F)(F)F)ccn3)ccc1C)C1=NCCN12` [Compound 132, N-(4-methyl-3-(8-(methylamino)-1,2-dihydroimidazo[1,2-a][1,6]naphthyridin-4-yl)phenyl)-4-(trifluoromethyl)picolinamide], for which the IC50 fell in the range of 100 to 10000 nM.

Compound `CNc1ncc2c(n1)N1CCN=C1C(c1cc(NC(=O)c3cc(C(F)(F)F)ccn3)c(Cl)cc1C)=C2` [Compound 133, N-(2-chloro-4-methyl-5-(2-(methylamino)-8,9-dihydroimidazo[1′,2′:1,6]pyrido[2,3-d]pyrimidin-6-yl)phenyl)-4-(trifluoromethyl)picolinamide] came in with an IC50 of less than 100 nM.

With `O=C(Nc1ccc(Cl)c(C2=Cc3cnc(NC4COC4)nc3N3CCN=C23)c1)c1cc(C(F)(F)F)ccn1` [Compound 137, N-(4-chloro-3-(2-(oxetan-3-ylamino)-8,9-dihydroimidazo[1′,2′:1,6]pyrido[2,3-d]pyrimidin-6-yl)phenyl)-4-(trifluoromethyl)picolinamide], the IC50 is less than 100 nM.

Compound `O=C(Nc1ccc(Cl)c(C2=Cc3cnc(NC4CCOCC4)nc3N3CCN=C23)c1)c1cc(C(F)(F)F)ccn1` [Compound 138, N-(4-chloro-3-(2-((tetrahydro-2H-pyran-4-yl)amino)-8,9-dihydroimidazo[1′,2′:1,6]pyrido[2,3-d]pyrimidin-6-yl)phenyl)-4-(trifluoromethyl)picolinamide] registered an IC50 of less than 100 nM.

As for `CNc1ncc2c(n1)N1CCN=C1C(c1cc(NC(=O)c3cc(C(F)(F)F)ccn3)c(F)cc1C)=C2` [Compound 139, N-(2-fluoro-4-methyl-5-(2-(methylamino)-8,9-dihydroimidazo[1′,2′:1,6]pyrido[2,3-d]pyrimidin-6-yl)phenyl)-4-(trifluoromethyl)picolinamide], the IC50 is less than 100 nM.

For `CNc1ncc2c(n1)N1CCN=C1C(c1cc(NC(=O)c3ccnc(C(F)(F)F)c3)ccc1C)=C2` [Compound 145, N-(4-methyl-3-(2-(methylamino)-8,9-dihydroimidazo[1′,2′:1,6]pyrido[2,3-d]pyrimidin-6-yl)phenyl)-2-(trifluoromethyl)isonicotinamide], the IC50 was in the range of 100 to 10000 nM.

These data come from patent US20230303570A1, “KINASE INHIBITORS AND USES THEREOF” (ABM Therapeutics Corporation, priority 2020, published 2023).
